Experimental findings from US11530210B2, “Substituted heteroaromatic pyrazolo-pyridines and their use as GLUN2B receptor modulators” (JANSSEN PHARMACEUTICA NV, priority 2019, dated 2022) are described below.

SMILES strings stand for the structures. pIC50: −log10 of the molar value. Where a name gives a salt, the structure may show the parent alone.

In general, pIC50 refers to −log10 of the IC50, conventionally taken in molar units.

In the assay the target is T1, human GluN1/GluN2B NMDA receptors (Homo sapiens, UniProt Q13224).
T1 construct: expressed in transfected cells
T1 sequence (Q13224 27-1484, other chains not shown): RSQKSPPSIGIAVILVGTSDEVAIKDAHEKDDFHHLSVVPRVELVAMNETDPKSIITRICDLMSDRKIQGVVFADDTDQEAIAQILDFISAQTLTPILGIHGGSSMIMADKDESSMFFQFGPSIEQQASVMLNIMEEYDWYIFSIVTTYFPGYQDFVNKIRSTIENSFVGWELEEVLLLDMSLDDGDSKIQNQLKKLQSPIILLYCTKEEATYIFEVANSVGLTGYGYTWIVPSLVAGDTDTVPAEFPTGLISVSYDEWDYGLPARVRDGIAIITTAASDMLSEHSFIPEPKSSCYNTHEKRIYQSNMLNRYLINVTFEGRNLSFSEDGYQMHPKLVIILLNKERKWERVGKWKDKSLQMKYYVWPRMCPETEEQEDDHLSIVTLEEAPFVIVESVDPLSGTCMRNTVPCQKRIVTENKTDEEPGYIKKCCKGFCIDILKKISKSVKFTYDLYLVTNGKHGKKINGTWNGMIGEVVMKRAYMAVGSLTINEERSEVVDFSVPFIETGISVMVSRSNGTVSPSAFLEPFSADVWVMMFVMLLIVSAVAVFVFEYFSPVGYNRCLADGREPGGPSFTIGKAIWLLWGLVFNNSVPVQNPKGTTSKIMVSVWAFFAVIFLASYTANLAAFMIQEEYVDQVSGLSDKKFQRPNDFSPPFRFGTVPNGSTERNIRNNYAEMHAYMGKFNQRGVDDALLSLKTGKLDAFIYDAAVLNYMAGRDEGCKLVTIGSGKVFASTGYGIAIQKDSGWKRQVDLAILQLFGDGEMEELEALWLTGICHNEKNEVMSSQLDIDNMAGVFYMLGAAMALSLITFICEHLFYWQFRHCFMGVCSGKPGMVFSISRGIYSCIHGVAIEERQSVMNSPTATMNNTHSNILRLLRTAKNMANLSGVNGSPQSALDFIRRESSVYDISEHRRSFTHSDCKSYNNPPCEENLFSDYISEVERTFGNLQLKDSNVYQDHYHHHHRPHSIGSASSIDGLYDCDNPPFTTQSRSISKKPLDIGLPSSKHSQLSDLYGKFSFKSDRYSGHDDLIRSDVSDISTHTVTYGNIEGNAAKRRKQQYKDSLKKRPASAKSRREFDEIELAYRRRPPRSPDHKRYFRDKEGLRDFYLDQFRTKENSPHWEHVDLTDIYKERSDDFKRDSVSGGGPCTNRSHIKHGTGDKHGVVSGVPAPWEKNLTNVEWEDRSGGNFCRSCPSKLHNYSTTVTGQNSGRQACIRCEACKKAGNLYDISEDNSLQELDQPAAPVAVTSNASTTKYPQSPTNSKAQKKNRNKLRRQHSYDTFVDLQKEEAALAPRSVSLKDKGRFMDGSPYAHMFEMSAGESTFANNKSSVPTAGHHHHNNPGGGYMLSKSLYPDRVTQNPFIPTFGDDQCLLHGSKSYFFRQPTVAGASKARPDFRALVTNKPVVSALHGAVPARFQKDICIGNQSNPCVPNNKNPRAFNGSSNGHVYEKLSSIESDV
Briefly: Calcium flux (FLIPR) assay on cloned human NR1/GluN2B ion channels expressed in mammalian cells (standard and HTS variants). Type of assay: cell-based. The settings on record: cells expressing human GluN1/GluN2B, glutamate and glycine co-agonists. The gist of the method:
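Calcium influx read by FLIPR after co-agonist addition (glycine 10 μM, glutamate near EC40) following 5 min compound preincubation, with signal normalized to control wells.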
Consider `Cc1c(F)ccc(-c2cnc3cnn(Cc4cccnn4)c3c2)c1F` [Example 269, 6-(2,4-Difluoro-3-methyl-phenyl)-1-(pyridazin-3-ylmethyl)pyrazolo[4,3-b]pyridine], for which the pIC50 was 6.97.

For `Cc1c(F)ccc(-c2cnc3cnn(Cc4ccc(F)nc4)c3c2)c1F` [Example 248, 6-(2,4-Difluoro-3-methyl-phenyl)-1-[(6-fluoro-3-pyridyl)methyl]pyrazolo[4,3-b]pyridine], the pIC50 was 7.21. In the case of `Cc1cc(Cn2ncc3ncc(-c4ccc(F)c(C(F)F)c4)cc32)no1` [Example 53, 3-[[6-[3-(Difluoromethyl)-4-fluoro-phenyl]pyrazolo[4,3-b]pyridin-1-yl]methyl]-5-methyl-isoxazole] it was 7.74; in that of `Fc1ccc(-c2cnc3cnn(Cc4cccnn4)c3c2)cc1F` [Example 266, 6-(3,4-Difluorophenyl)-1-(pyridazin-3-ylmethyl)pyrazolo[4,3-b]pyridine], 6.17. The value for `Cc1nn(Cc2cccnc2)c2cc(-c3ccc(F)c(C(F)F)c3)cnc12` [Example 199, 6-[3-(Difluoromethyl)-4-fluoro-phenyl]-3-methyl-1-(3-pyridylmethyl)pyrazolo[4,3-b]pyridine] was 7.47; that for `COc1ncccc1Cn1ncc2ncc(-c3ccc(F)c(OC(F)F)c3)cc21` [Example 229, 6-[3-(Difluoromethoxy)-4-fluoro-phenyl]-1-[(2-methoxy-3-pyridyl)methyl]pyrazolo[4,3-b]pyridine] was 6.15. The value for `Cc1cnc(Cn2ncc3ncc(-c4ccc(F)c(OC(F)F)c4)cc32)s1` [Example 69, 2-[[6-[3-(Difluoromethoxy)-4-fluoro-phenyl]pyrazolo[4,3-b]pyridin-1-yl]methyl]-5-methyl-thiazole] was 6.98. As to `FC(F)Oc1cc(-c2cnc3cnn(Cc4cccnc4)c3c2)ccc1Cl` [Example 238, 6-[4-Chloro-3-(difluoromethoxy)phenyl]-1-(3-pyridylmethyl)pyrazolo[4,3-b]pyridine], the pIC50 was 6.93. The value for `Fc1cncc(Cn2ncc3ncc(-c4cc(F)c(F)c(F)c4)cc32)c1` [Example 251, 1-[(5-Fluoro-3-pyridyl)methyl]-6-(3,4,5-trifluorophenyl)pyrazolo[4,3-b]pyridine] was 7.60.

With `CC(C)c1nnc(Cn2ncc3ncc(-c4ccc(F)c(C(F)F)c4)cc32)o1` [Example 100, 2-[[6-[3-(Difluoromethyl)-4-fluoro-phenyl]pyrazolo[4,3-b]pyridin-1-yl]methyl]-5-isopropyl-1,3,4-oxadiazole], the pIC50 was 6.26. In the case of `Fc1ccc(-c2cnc3cnn(Cc4ccccn4)c3c2)cc1` [Example 149, 6-(4-Fluorophenyl)-1-(2-pyridylmethyl)pyrazolo[4,3-b]pyridine] it was 5.46; in that of `Cc1nnc(Cn2ncc3ncc(-c4ccnc(C(F)(F)F)c4)cc32)o1` [Example 88, 2-Methyl-5-[[6-[2-(trifluoromethyl)-4-pyridyl]pyrazolo[4,3-b]pyridin-1-yl]methyl]-1,3,4-oxadiazole], 6.33; in that of `FC(F)c1cccc(-c2cnc3cnn(Cc4ccccn4)c3c2)c1` [Example 156, 6-[3-(Difluoromethyl)phenyl]-1-(2-pyridylmethyl)pyrazolo[4,3-b]pyridine], 6.13. The value for `Cc1nnc(Cn2ncc3ncc(-c4ccc(Cl)c(C(F)F)c4)cc32)o1` [Example 106, 2-[[6-[4-Chloro-3-(difluoromethyl)phenyl]pyrazolo[4,3-b]pyridin-1-yl]methyl]-5-methyl-1,3,4-oxadiazole] was 6.94; that for `Fc1cc(F)cc(Cn2ncc3ncc(-c4ccc(F)c(C(F)F)c4)cc32)c1` [Example 27, 6-[3-(Difluoromethyl)-4-fluoro-phenyl]-1-[(3,5-difluorophenyl)methyl]pyrazolo[4,3-b]pyridine] was 6.40; that for `Fc1ccc(-c2cnc3cnn(Cc4cncc(OC(F)F)c4)c3c2)cc1C(F)F` [Example 210, 1-[[5-(Difluoromethoxy)-3-pyridyl]methyl]-6-[3-(difluoromethyl)-4-fluoro-phenyl]pyrazolo[4,3-b]pyridine] was 6.96.

On to `Fc1ccc(-c2cnc3cnn(Cc4cncnc4)c3c2)cc1OC(F)F` [Example 278, 6-[3-(Difluoromethoxy)-4-fluoro-phenyl]-1-(pyrimidin-5-ylmethyl)pyrazolo[4,3-b]pyridine], for which the pIC50 is 7.28. The value for `COc1cncc(Cn2ncc3ncc(-c4ccc(F)c(C(C)(F)F)c4)cc32)c1` [Example 220, 6-[3-(1,1-Difluoroethyl)-4-fluoro-phenyl]-1-[(5-methoxy-3-pyridyl)methyl]pyrazolo[4,3-b]pyridine] was 7.05; that for `COc1nccc(Cn2ncc3ncc(-c4ccc(F)c(OC(F)F)c4)cc32)n1` [Example 291, 6-[3-(Difluoromethoxy)-4-fluoro-phenyl]-1-[(2-methoxypyrimidin-4-yl)methyl]pyrazolo[4,3-b]pyridine] was 6.03; that for `Fc1ccc(-c2cnc3cnn(Cc4cncc(OC(F)F)c4)c3c2)cc1` [Example 151, 1-[[5-(Difluoromethoxy)-3-pyridyl]methyl]-6-(4-fluorophenyl)pyrazolo[4,3-b]pyridine] was 5.94. In the case of `N#Cc1cncc(Cn2ncc3ncc(-c4ccc(Cl)c(OC(F)F)c4)cc32)c1` [Example 241, 5-[[6-[4-Chloro-3-(difluoromethoxy)phenyl]pyrazolo[4,3-b]pyridin-1-yl]methyl]pyridine-3-carbonitrile] it was 6.82. The value for `Cc1ccncc1Cn1ncc2ncc(-c3cc(F)cc(F)c3)cc21` [Example 184, 6-(3,5-Difluorophenyl)-1-[(4-methyl-3-pyridyl)methyl]pyrazolo[4,3-b]pyridine trifluoroacetate salt] was 7.17. Regarding `Cc1cc(-c2cnc3cnn(Cc4cnccc4C)c3c2)ccc1F` [Example 181, 6-(4-Fluoro-3-methyl-phenyl)-1-[(4-methyl-3-pyridyl)methyl]pyrazolo[4,3-b]pyridine trifluoroacetate salt], the pIC50 is 6.95. For `COc1cccc(Cn2ncc3ncc(-c4ccc(F)c(C(F)F)c4)cc32)n1` [Example 205, 6-[3-(Difluoromethyl)-4-fluoro-phenyl]-1-[(6-methoxy-2-pyridyl)methyl]pyrazolo[4,3-b]pyridine], the pIC50 is 6.75. In the case of `Cc1noc(Cn2ncc3ncc(-c4cc(F)cc(C(F)(F)F)c4)cc32)n1` [Example 108, 5-[[6-[3-Fluoro-5-(trifluoromethyl)phenyl]pyrazolo[4,3-b]pyridin-1-yl]methyl]-3-methyl-1,2,4-oxadiazole] it was 6.09; in that of `CC(F)(F)c1cccc(-c2cnc3cnn(Cc4cncnc4)c3c2)c1` [Example 274, 6-[3-(1,1-Difluoroethyl)phenyl]-1-(pyrimidin-5-ylmethyl)pyrazolo[4,3-b]pyridine], 7.29. In the case of `N#Cc1cncc(Cn2ncc3ncc(-c4ccc(Cl)s4)cc32)c1` [Example 140, 5-[[6-(5-Chloro-2-thienyl)pyrazolo[4,3-b]pyridin-1-yl]methyl]pyridine-3-carbonitrile], the negative logarithm of the IC50 (pIC50) was 6.77. The value for `Fc1cncc(Cn2ncc3ncc(-c4ccc(F)c(F)c4)cc32)c1` [Example 192, 6-(3,4-Difluorophenyl)-1-[(5-fluoro-3-pyridyl)methyl]pyrazolo[4,3-b]pyridine trifluoroacetate salt] was 7.32; that for `Fc1ccc(Cn2ncc3ncc(-c4ccc(Cl)c(Cl)c4)cc32)cn1` [Example 214, 6-(3,4-Dichlorophenyl)-1-[(6-fluoro-3-pyridyl)methyl]pyrazolo[4,3-b]pyridine] was 5.72; that for `Fc1cncc(Cn2ncc3ncc(-c4ccc(F)c(Cl)c4)cc32)c1` [Example 195, 6-(3-Chloro-4-fluoro-phenyl)-1-[(5-fluoro-3-pyridyl)methyl]pyrazolo[4,3-b]pyridine] was 7.60. On to `Cc1cccc(-c2cnc3cnn(Cc4ccc(F)nc4)c3c2)c1` [Example 145, 1-[(6-Fluoro-3-pyridyl)methyl]-6-(m-tolyl)pyrazolo[4,3-b]pyridine], for which the pIC50 was 7.44. The value for `Fc1cc(-c2cnc3cnn(Cc4cccnn4)c3c2)cc(F)c1F` [Example 268, 1-(Pyridazin-3-ylmethyl)-6-(3,4,5-trifluorophenyl)pyrazolo[4,3-b]pyridine] was 6.17; that for `Fc1ccc(Cn2ncc3ncc(-c4ccc(F)c(Br)c4)cc32)cn1` [Example 235, 6-(3-Bromo-4-fluorophenyl)-1-((6-fluoropyridin-3-yl)methyl)-1H-pyrazolo[4,3-b]pyridine] was 6.60.

For `Cc1nnc(Cn2ncc3ncc(-c4ccc(C(F)F)s4)cc32)o1` [Example 79, 2-[[6-[5-(Difluoromethyl)-2-thienyl]pyrazolo[4,3-b]pyridin-1-yl]methyl]-5-methyl-1,3,4-oxadiazole], the pIC50 is 6.82. In the case of `Cc1noc(Cn2ncc3ncc(-c4ccc(F)c(OC(F)F)c4)cc32)n1` [Example 112, 5-[[6-[3-(Difluoromethoxy)-4-fluoro-phenyl]pyrazolo[4,3-b]pyridin-1-yl]methyl]-3-methyl-1,2,4-oxadiazole] it was 6.54; in that of `Cc1cnc(Cn2ncc3ncc(-c4cccc(C(F)(F)F)c4)cc32)nc1` [Example 287, 1-[(5-Methylpyrimidin-2-yl)methyl]-6-[3-(trifluoromethyl)phenyl]pyrazolo[4,3-b]pyridine], 5.49. In the case of `Cc1cc(Cn2ncc3ncc(-c4ccc(F)c(OC(F)F)c4)cc32)ncn1` [Example 281, 6-[3-(Difluoromethoxy)-4-fluoro-phenyl]-1-[(6-methylpyrimidin-4-yl)methyl]pyrazolo[4,3-b]pyridine] it was 6.01.

For the molecule `Cc1cc(-c2cnc3cnn(Cc4cccnc4)c3c2)ccc1F` [Example 177, 6-(4-Fluoro-3-methyl-phenyl)-1-(3-pyridylmethyl)pyrazolo[4,3-b]pyridine], the pIC50 is 7.64.
